Results: patent US12377104B1, “Methods for treating a fatty liver disease” (Madrigal Pharmaceuticals, Inc., priority 2024, dated 2025)

Legend:
NASH liver fibrosis = test: MAESTRO-NASH: qFibrosis assessment of biopsies; type: in vivo, human; conditions: Week 52 biopsy, compared with placebo
Excerpt: Fibrosis stage predicts clinical outcomes in NASH/metabolic-associated steatohepatitis (MASH), with liver biopsies as the regulatory standard. Ordinal fibrosis staging on stained slides may limit the ability to visualize dynamic fibrosis features throughout the liver lobule. qFibrosis, an AI-driven fibrosis assessment methodology that utilizes laser driven (SHG) collagen detection on unstained biopsy slides, has identified 30 specific fibrotic features on NASH liver biopsies that may be predictive of liver-related clinical outcomes, progression to cirrhosis and decompensated cirrhosis based on the SteatoSITE population. Non-invasive measures such as baseline MRE or FibroScan VCTE, ELF, and other non-invasive fibrosis markers also predict progression to cirrhosis and decompensated cirrhosis. SteatoSITE contains integrated clinical and pathological data from 940 cases across the NAFLD spectrum with outcome data from electronic health record and pathologist-assigned fibrosis stage and RNA on baseline biopsy. […] Baseline and Week 52 biopsies from MAESTRO-NASH were analyzed for 30 qFibrosis features identified by SteatoSITE that are associated with progression of NASH fibrosis to liver decompensation, and six features with the strongest correlations between baseline pathologist scoring and non-invasive tests were identified.

[1] = MAESTRO-NASH: sex hormones at week 52; conditions: for Estradiol (female), LS mean CFB / Estradiol (female), LS mean difference from PBO (CFB) / Estradiol (male), LS mean CFB / Estradiol (male), LS mean difference from PBO (CFB) / FSH (female), LS mean CFB / FSH (female), LS mean difference from PBO (CFB) / FSH (male), LS mean CFB / FSH (male), LS mean difference from PBO (CFB) / Free testosterone (female), LS mean CFB / Free testosterone (female), LS mean difference from PBO (CFB) / Free testosterone (male), LS mean CFB / Free testosterone (male), LS mean difference from PBO (CFB) / LH (female), LS mean CFB / LH (female), LS mean difference from PBO (CFB) / LH (male), LS mean CFB / LH (male), LS mean difference from PBO (CFB) / SHBG (female), LS mean % CFB / SHBG (female), LS mean CFB / SHBG (female), LS mean difference from PBO (% CFB) / SHBG (female), LS mean difference from PBO (CFB) / SHBG (male), LS mean % CFB / SHBG (male), LS mean CFB / SHBG (male), LS mean difference from PBO (% CFB) / SHBG (male), LS mean difference from PBO (CFB) / SHBG, LS mean % CFB / SHBG, LS mean CFB / SHBG, LS mean difference from PBO (% CFB) / SHBG, LS mean difference from PBO (CFB) / Testosterone (female), LS mean CFB / Testosterone (female), LS mean difference from PBO (CFB) / Testosterone (male), LS mean CFB / Testosterone (male), LS mean difference from PBO (CFB): Week 52
[2] = test system: NASH patients with fibrosis stage F1A or F1C; test: MAESTRO-NASH: exploratory F1 (F1A/F1C) population, endpoints and safety

CC(C)c1cc(Oc2c(Cl)cc(-n3nc(C#N)c(=O)[nH]c3=O)cc2Cl)n[nH]c1=O [Resmetirom, 2-(3,5-dichloro-4-((5-isopropyl-6-oxo-1,6-dihydropyridazin-3-yl)oxy)phenyl)-3,5-dioxo-2,3,4,5-tetrahydro-1,2,4-triazine-6-carbonitrile]
total qFibrosis scores (NASH liver fibrosis): highly significant improvement in fibrosis | Estradiol (female), LS mean CFB ([1]; 80 mg): 17.7 ng/L | Estradiol (female), LS mean difference from PBO (CFB) ([1]; 80 mg): 15.9 ng/L | Estradiol (male), LS mean CFB ([1]; 80 mg): 8.9 ng/L | Estradiol (male), LS mean difference from PBO (CFB) ([1]; 80 mg): 9.0 ng/L | FSH (female), LS mean CFB ([1]; 80 mg): −0.54 mIU/mL | FSH (female), LS mean difference from PBO (CFB) ([1]; 80 mg): 0.79 mIU/mL | FSH (male), LS mean CFB ([1]; 80 mg): 1.1 mIU/mL | FSH (male), LS mean difference from PBO (CFB) ([1]; 80 mg): 1.1 mIU/mL | Free testosterone (female), LS mean CFB ([1]; 80 mg): 0 nmol/L | Free testosterone (female), LS mean difference from PBO (CFB) ([1]; 80 mg): 0 nmol/L | Free testosterone (male), LS mean CFB ([1]; 80 mg): 0.04 nmol/L | Free testosterone (male), LS mean difference from PBO (CFB) ([1]; 80 mg): 0.02 nmol/L | LH (female), LS mean CFB ([1]; 80 mg): −0.93 mIU/mL | LH (female), LS mean difference from PBO (CFB) ([1]; 80 mg): −0.33 mIU/mL | LH (male), LS mean CFB ([1]; 80 mg): 1.7 mIU/mL | LH (male), LS mean difference from PBO (CFB) ([1]; 80 mg): 1.8 mIU/mL | SHBG (female), LS mean % CFB ([1]; 80 mg): 193.0% | SHBG (female), LS mean CFB ([1]; 80 mg): 74.1 nmol/L | SHBG (female), LS mean difference from PBO (% CFB) ([1]; 80 mg): 177.4% | SHBG (female), LS mean difference from PBO (CFB) ([1]; 80 mg): 73.3 nmol/L | SHBG (male), LS mean % CFB ([1]; 80 mg): 108.0% | SHBG (male), LS mean CFB ([1]; 80 mg): 41.9 nmol/L | SHBG (male), LS mean difference from PBO (% CFB) ([1]; 80 mg): 107.3% | SHBG (male), LS mean difference from PBO (CFB) ([1]; 80 mg): 40.4 nmol/L | SHBG, LS mean % CFB ([1]; 80 mg): 157.5% | SHBG, LS mean CFB ([1]; 80 mg): 60.2 nmol/L | SHBG, LS mean difference from PBO (% CFB) ([1]; 80 mg): 148.5% | SHBG, LS mean difference from PBO (CFB) ([1]; 80 mg): 58.9 nmol/L | Testosterone (female), LS mean CFB ([1]; 80 mg): 0.15 µg/L | Testosterone (female), LS mean difference from PBO (CFB) ([1]; 80 mg): 0.15 µg/L | Testosterone (male), LS mean CFB ([1]; 80 mg): 2.6 µg/L | Testosterone (male), LS mean difference from PBO (CFB) ([1]; 80 mg): 2.2 µg/L | Estradiol (female), LS mean CFB ([1]; 100 mg): 30.6 ng/L | Estradiol (female), LS mean difference from PBO (CFB) ([1]; 100 mg): 28.8 ng/L | Estradiol (male), LS mean CFB ([1]; 100 mg): 11.0 ng/L | Estradiol (male), LS mean difference from PBO (CFB) ([1]; 100 mg): 11.2 ng/L | FSH (female), LS mean CFB ([1]; 100 mg): 0.63 mIU/mL | FSH (female), LS mean difference from PBO (CFB) ([1]; 100 mg): 2.0 mIU/mL | FSH (male), LS mean CFB ([1]; 100 mg): 1.7 mIU/mL | FSH (male), LS mean difference from PBO (CFB) ([1]; 100 mg): 1.7 mIU/mL | Free testosterone (female), LS mean CFB ([1]; 100 mg): 0 nmol/L | Free testosterone (female), LS mean difference from PBO (CFB) ([1]; 100 mg): 0 nmol/L | Free testosterone (male), LS mean CFB ([1]; 100 mg): 0.03 nmol/L | Free testosterone (male), LS mean difference from PBO (CFB) ([1]; 100 mg): 0.01 nmol/L | LH (female), LS mean CFB ([1]; 100 mg): 0.80 mIU/mL | LH (female), LS mean difference from PBO (CFB) ([1]; 100 mg): 1.4 mIU/mL | LH (male), LS mean CFB ([1]; 100 mg): 1.9 mIU/mL | LH (male), LS mean difference from PBO (CFB) ([1]; 100 mg): 2.0 mIU/mL | SHBG (female), LS mean % CFB ([1]; 100 mg): 251.8% | SHBG (female), LS mean CFB ([1]; 100 mg): 94.0 nmol/L | SHBG (female), LS mean difference from PBO (% CFB) ([1]; 100 mg): 236.2% | SHBG (female), LS mean difference from PBO (CFB) ([1]; 100 mg): 93.2 nmol/L | SHBG (male), LS mean % CFB ([1]; 100 mg): 174.0% | SHBG (male), LS mean CFB ([1]; 100 mg): 60.8 nmol/L | SHBG (male), LS mean difference from PBO (% CFB) ([1]; 100 mg): 173.3% | SHBG (male), LS mean difference from PBO (CFB) ([1]; 100 mg): 59.3 nmol/L | SHBG, LS mean % CFB ([1]; 100 mg): 217.4% | SHBG, LS mean CFB ([1]; 100 mg): 80.7 nmol/L | SHBG, LS mean difference from PBO (% CFB) ([1]; 100 mg): 208.4% | SHBG, LS mean difference from PBO (CFB) ([1]; 100 mg): 79.4 nmol/L | Testosterone (female), LS mean CFB ([1]; 100 mg): 0.19 µg/L | Testosterone (female), LS mean difference from PBO (CFB) ([1]; 100 mg): 0.19 µg/L | Testosterone (male), LS mean CFB ([1]; 100 mg): 3.5 µg/L | Testosterone (male), LS mean difference from PBO (CFB) ([1]; 100 mg): 3.0 µg/L | levels of sex hormones ([1]; in vivo): little changed from baseline | Any Serious TEAE, % ([2]; 80 mg): (20.0) % | Any TEAEs leading to Study Discontinuation, % ([2]; 80 mg): (13.3) % | TEAE Grade 1, % ([2]; 80 mg): (20.0) % | TEAE Grade 2, % ([2]; 80 mg): (53.3) % | TEAE Grade 3, % ([2]; 80 mg): (16.7) % | Any TEAE, % ([2]; 80 mg (N = 30)): (93.3) % | Fibrosis improvement endpoint ([2]; 80 mg (N = 30)): 21.7% | Nash resolution endpoint ([2]; 80 mg (N = 30)): 38.3% | Any Serious TEAE, % ([2]; 100 mg): (23.1) % | Any TEAEs leading to Study Discontinuation, % ([2]; 100 mg): (11.5) % | TEAE Grade 1, % ([2]; 100 mg): (19.2) % | TEAE Grade 2, % ([2]; 100 mg): (46.2) % | TEAE Grade 3, % ([2]; 100 mg): (15.4) % | Any TEAE, % ([2]; 100 mg (N = 26)): (80.8) % | Fibrosis improvement endpoint ([2]; 100 mg (N = 26)): 15.4% | Nash resolution endpoint ([2]; 100 mg (N = 26)): 25.0% | Abdominal pain upper, % ([2]; AEs >5%, 80 mg): (6.7) % | Abdominal pain, % ([2]; AEs >5%, 80 mg): (3.3) % | Arthralgia, % ([2]; AEs >5%, 80 mg): (20.0) % | Back pain, % ([2]; AEs >5%, 80 mg): (13.3) % | Constipation, % ([2]; AEs >5%, 80 mg): (13.3) % | Diarrhea, % ([2]; AEs >5%, 80 mg): (26.7) % | Dizziness, % ([2]; AEs >5%, 80 mg): (6.7) % | Fatigue, % ([2]; AEs >5%, 80 mg): (10.0) % | Headache, % ([2]; AEs >5%, 80 mg): (13.3) % | Hypertension (AE), % ([2]; AEs >5%, 80 mg): (3.3) % | Nausea, % ([2]; AEs >5%, 80 mg): (16.7) % | Pruritus, % ([2]; AEs >5%, 80 mg): (6.7) % | Pyrexia, % ([2]; AEs >5%, 80 mg): (6.7) % | Rash, % ([2]; AEs >5%, 80 mg): (10.0) % | Type 2 diabetes mellitus (AE), % ([2]; AEs >5%, 80 mg): (3.3) % | Urinary tract infection, % ([2]; AEs >5%, 80 mg): (6.7) % | Vomiting, % ([2]; AEs >5%, 80 mg): (3.3) % | Weight decreased, % ([2]; AEs >5%, 80 mg): (3.3) % | Abdominal pain upper, % ([2]; AEs >5%, 100 mg): (3.8) % | Abdominal pain, % ([2]; AEs >5%, 100 mg): (7.7) % | Arthralgia, % ([2]; AEs >5%, 100 mg): (7.7) % | Back pain, % ([2]; AEs >5%, 100 mg): (11.5) % | Constipation, % ([2]; AEs >5%, 100 mg): (7.7) % | Cough, % ([2]; AEs >5%, 100 mg): (3.8) % | Diarrhea, % ([2]; AEs >5%, 100 mg): (19.2) % | Dizziness, % ([2]; AEs >5%, 100 mg): (7.7) % | Fatigue, % ([2]; AEs >5%, 100 mg): (7.7) % | Nausea, % ([2]; AEs >5%, 100 mg): (7.7) % | Osteopenia, % ([2]; AEs >5%, 100 mg): (7.7) % | Pruritus, % ([2]; AEs >5%, 100 mg): (15.4) % | Rash, % ([2]; AEs >5%, 100 mg): (7.7) % | Type 2 diabetes mellitus (AE), % ([2]; AEs >5%, 100 mg): (3.8) % | Urinary tract infection, % ([2]; AEs >5%, 100 mg): (15.4) % | Vomiting, % ([2]; AEs >5%, 100 mg): (11.5) % | Weight decreased, % ([2]; AEs >5%, 100 mg): (11.5) %
